In experiment [1] the test system is human breast cancer cell line HCC1954. In words: HCC1954 growth inhibition assay. It counts as cell-based. The note with it: 3 days incubation, CellTiter-Glo. The protocol:
In this assay, the growth inhibitory activity of test compounds in a human breast cancer cell line HCC1954 was measured. HCC1954 cells were maintained in an RPMI-1640 medium modified to contain 2 mM L-glutamine, 10 mM HEPES, 1 mM sodium pyruvate, 4500 mg/L glucose, and 1500 mg/L sodium bicarbonate (ATCC 30-2001) containing 10% fetal bovine serum (FBS: Nichirei, 12D168), and penicillin and streptomycin in a 5% CO2 incubator (37° C.). To each well of a 96 well plate (Becton, Dickinson and Company, 353219), 75 μL of HCC1954 cell suspension adjusted to a concentration of 4×10^4 cells/mL with the culture medium was added, and the cells were incubated overnight in a 5% CO2 incubator (37° C.). On the next day, 25 μL of Compound (1) or Halichondrin B in three-fold dilution series suspended in the culture medium was added to each well, and the resultant was incubated for 3 days in a 5% CO2 incubator (37° C.). Then, cell viability was determined by CellTiter-Glo® Luminescent Cell Viability Assay (Promega) with EnVision 2103 Multilabel Reader (Perkin-Elmer, Wellesley, Mass.). Value of the wells containing cells without adding the test compounds was defined as 100% and the value of the wells containing no cells was defined as 0%. The concentration of the test compound necessary for inhibiting the cell growth by 50% (i.e., an IC50 value) was calculated, and shown in Table 3.
A general note: In ATP-based viability assays light output follows the ATP content of the culture.

Experiment [2] deals with MES-SA/Dx5-Rx1 (human uterine sarcoma, overexpress P-gp). In words: In vitro antiproliferative activity, MES-SA/Dx5-Rx1. It counts as cell-based. The following applies: MES-SA/Dx5-Rx1, 72 hours. The protocol: (§1) The in vitro antiproliferative assays for Compound (1) were conducted using a small panel of cancer cell lines including human squamous cell carcinoma of the esophagus (OE21, TE-8), human adenocarcinoma of the esophagus (OE33), and human uterine sarcoma (MES-SA, MES-SA-Dx5-Rx1). All cell lines were cultured in RPMI-1640 medium containing 10% FBS, and penicillin-streptomycin (culture medium), in a 5% CO2 incubator (37° C.). To each well of a 96 well plate (Becton, Dickinson and Company, 353219), 75 μL of cell suspension adjusted to a concentration of 4×10^4 cells/mL with the culture medium was added, and the cells were incubated overnight in a 5% CO2 incubator (37° C.). On the next day, 25 μL of Compound (1) in three-fold dilution series suspended in the culture medium was added to each well, and the resultant was incubated for 72 hours in a 5% CO2 incubator (37° C.). Then, cell viability was determined by CellTiter-Glo® Luminescent Cell Viability Assay (Promega) with 2013 EnVision™ Multilabel Reader (Perkin-Elmer, Wellesley, Mass.). Value of the wells containing cells without adding the test compounds was defined as 100% and the value of the wells containing no cells was defined as 0%. […] The P-gp susceptibility was calculated as the ratio of the IC50 value in MES-SA-Dx5-Rx1 cells, which overexpress P-gp, to the IC50 value in MES-SA cells.

For experiment [3], the system named is MES-SA (human uterine sarcoma). In words: In vitro antiproliferative activity, MES-SA. It counts as cell-based. The note with it: 72 hours. The protocol: as §1
The subject of experiment [4] is HEC-108 (human endometrial cancer) xenograft. In words: Antitumor effects in HEC-108 endometrial cancer xenograft model in mice as monotherapy. In kind it is in vivo. The note with it: 180 μg/kg intravenously on Day 1 and Day 8. The protocol: A human endometrial cancer cell line HEC-108, which had been cultured in an E-MEM containing 15% FBS and antibiotics were adjusted to a concentration of 7.14×10^7 cells/mL with medium to prepare a cell suspension. The cell suspension was inoculated in a volume of 150 μL into a subcutaneous part of a right flank of athymic mice (CAnN.Cg-Foxnlnu/CrlCrlj, female, 6 weeks old, Charles River Japan Inc.). Thirteen days after cell inoculation (Day 1), the length and the width of a tumor in each mouse were measured by using an electronic digital caliper (Mitutoyo Corporation), so as to calculate the volume of the tumor in accordance with the following calculation formula: Tumor volume (mm^3)=Longest diameter (mm)×Shortest diameter (mm)×Shortest diameter (mm)/2 Relative tumor volume (RTV)=Tumor volume (day X)/Tumor volume (the first day)
On the basis of TV, the mice were randomly grouped (Day 1). Each group was consisted in six mice. Compound (1) was dissolved in DMSO and a solution was stored in the freezer before use. Compound (1) (180 μg/kg) was diluted in saline and intravenously injected on Day 1 and Day 8.

Experiment [5] has as its system OE33 (human adenocarcinoma of the esophagus). The experiment can be described thus: In vitro antiproliferative activity, OE33. In kind it is cell-based. The following applies: OE33, 72 hours. The protocol: as §1
In experiment [6] the test system is HSC-2-Luc orthotopic transplantation (tongue). The experiment can be described thus: HSC-2 orthotopic transplantation mouse model. In kind it is in vivo, mice.
The subject of experiment [7] is CT26 subcutaneous syngeneic model. In words: Antitumor activity in CT26 subcutaneous syngeneic model in combination with anti-mPD-1 antibody in mice. It counts as in vivo. The protocol:
A murine undifferentiated colon carcinoma cell line CT26, which had been cultured in an RPMI-1640 medium containing 10% FBS, and penicillin and streptomycin, was adjusted to a concentration of 2×10^7 cells/mL with Hank's Balanced Salt Solution to prepare a cell suspension. On day 1, the cell suspension was inoculated in a volume of 100 μL into a subcutaneous part of a right flank of BALB/c mice, 6 weeks of ages (BALB/cAnNCrlCrlj, female, Charles River Laboratories Japan, Inc.). Two days after the cell inoculation, the mice were randomly divided into four groups and each group consists of 8 mice. The shortest diameter and the longest diameter of a tumor in each mouse were measured by using an electronic digital caliper (Digimatic™ caliper, Mitutoyo Corporation), so as to calculate the volume of the tumor in accordance with the following calculation formula: Tumor volume (mm^3)=Longest diameter (mm)×Shortest diameter (mm)×Shortest diameter (mm)/2 T/C=(mean tumor volume of treated group)/(mean tumor volume of control group) Inhibition of tumor growth (%)=(1−T/C)×100
The test compound was intravenously administered at 0.09 mg/kg on days 3 and 11. Anti-mPD-1 antibody (BE0146, Bio X Cell) was intravenously administered at 10 mg/kg on days 3, 7, 11, and 15.

Molecules are shown by their SMILES.

For orientation: IC50 means the concentration at which inhibition is half-maximal. A higher IC50 goes with weaker potency in that assay. Take `C=C1C[C@@H]2CC[C@@]34C[C@H]5O[C@H]6[C@@H](O3)[C@H]3O[C@H](CC[C@@H]3O[C@H]6C5O4)CC(=O)O[C@@H]3[C@@H](C)[C@@H]4O[C@@H]5C[C@]6(C[C@@H]7O[C@]8(C[C@H](C)[C@@H]9O[C@H](CN)[C@H](O)C[C@@H]9O8)C[C@H](C)[C@@H]7O6)O[C@@H]5C[C@@H]4O[C@H]3C[C@H]3O[C@@H](CC[C@@H]1O2)C[C@@H](C)C3=C` [Compound (1)]: in experiment [1], the midpoint of inhibition, the IC50, lay at 0.0668 nM. The antiproliferative activity result in experiment [2], in experiment [3] and in experiment [5] was “potent antiproliferative agent” each time. The antitumor activity result in experiment [4] is reported as “tumor growth delay”. In addition, in experiment [6] (Compound (1)+CTX combination group, n=16), the “survived mice on Day 100” value is given as 10. Also, the bioluminescence signal result in experiment [6] (with cetuximab, after Day 14) is recorded as “clearly reduced the bioluminescence signal in all mice”. The “Inhibition of tumor growth on day 15 (%)” value in experiment [7] (0.09 mg/kg intravenously + anti-mPD-1 antibody 10 mg/kg) turned out to be 62%; in experiment [7] (0.09 mg/kg intravenously on days 3 and 11, without antibody), 30%.

These data come from patent US11725015B2, “Macrocyclic compound and uses thereof” (President and Fellows of Harvard College, priority 2017, dated 2023).
